“Also recorded” adds a separate entry of the source.
How the values were obtained:
wildtype mice = assay: Food intake in wild type mice (comparison to Magel2-null); format: in vivo; settings: 0.1 mg/kg i.p.
Method: (§1) Experiments were performed to determine the effect of a MC4R agonist, setmelanotide, on Magel2-null mice. Setmelanotide was evaluated in wild type and Magel2-null mice. Adult mice (N=6 per group) were acclimated to metabolic chambers, and food intake and energy expenditure (kcal/h) were measured over time. Mice were 8 weeks old. […] Vehicle and drug (setmelanotide) were administered intraperitoneally (i.p.) (n=6 for each treatment). A 0.1 mg/kg dose of setmelanotide was injected i.p. before the start of the dark cycle in the mice.
(§2) Food intake (cumulative in grams (g)) through 3 hours post dose and overnight cumulative food intake were assessed. Energy expenditure was also measured after dosing. Post-setmelanotide treatment data were compared to the data from post-vehicle injections in the same groups of mice. Statistical analysis was by two-way ANOVA followed by Bonferroni post-testing.

db/db mice = assay: Food intake over four hours in db/db mice (leptin receptor deficient); format: in vivo
Method: (§3) To determine this, wild-type and db/db mice were exposed to vehicle or varying concentrations of setmelanotide (0.0554 mpk; 0.137 mpk, 0.344 mpk, or 1.37 mpk), and their food intake was measured over four hours.

wild-type mice = assay: Food intake over four hours in wild-type mice; format: in vivo
Method: as §3

[1] = cited from earlier work
Magel2-null mice = assay: Food intake and energy expenditure in Magel2-null mice (mouse model of PWS); format: in vivo
Method: as §1, §2

[2] = tested on: wild-type obese human patients; assay: Weight loss in wild-type obese human patients; format: in vivo; settings: 0.01 mg/kg or 0.015 mg/kg twice daily (BID); after 2 or 4 weeks; placebo-subtracted
Method: The effect of MC4R agonist setmelanotide on wild-type obese human patients was assessed. The patients were treated with placebo or setmelanotide twice daily (BID) at 0.01 mg/kg or 0.015 mg/kg. There were 9 patients in each treatment group (6 with setmelanotide and 3 with placebo).
The amount of weight loss was determined after 2 weeks or after 4 weeks of treatment. […] The weight loss among the wild-type obese patients was about 0.6 to about 0.9 kg per week.

POMC deficient patient = assay: Phase 2 open label study of setmelanotide in an adult POMC deficient patient with severe obesity and hyperphagia; format: in vivo, human
Method: See, e.g., Chen et al. J. Clin. Endocrinol. Metab. 2015; 100:1639-45. The study was an investigator initiated, open label, phase 2, non-randomized proof of concept study (EudraCT No. 2014-002392-28; Clinical Trials Identifier No. NCT02507492) with three parts: pre-study evaluation, main study (about 13 weeks) and after a short interval off drug, a long-term extension phase.
In the pre-study period, baseline examinations were performed, including analysis of metabolic parameters, including OGTT, GnRH test, fasting blood glucose, Leptin measurements as well as bioelectrical impedance analysis (BIA, according standard protocols; Data-in, Nutriguard-MS), indirect calorimetry (CareFusion, VMAX® Encore system), heart rate and blood pressure monitoring (after the first injection and after each dosage escalation blood pressure was measured regularly over 12 hours; in addition, blood was measured at home 3 times daily) as well as a dermatological and psychological examination. All parameters were in the normal range with the exception of elevated fasting insulin reflecting insulin resistance. These measurements were repeated after 13 and 26 weeks of treatment. Baseline examination also included physical examination, e.g., measurement of height and body-weight. Setmelanotide treatment was started at a dose of 0.25 mg subcutaneously (s.c.) once daily. The dose escalated every 1-2 weeks after careful assessment of safety and weight loss. After the first injection and after each dosage escalation, blood pressure was measured regularly over 12 hours. In addition, blood was measured 3 times daily. Setmelanotide injections were given once a day.
After about 90 days of treatment (main study), assessments were repeated, including assessments of metabolic parameters, e.g., blood tests, skin examination, and psychological evaluation. Setmelanotide treatment was ended, and a rapid and large weight gain off-treatment was observed. Subsequently, setmelanotide treatment was continued for another 3 months (extension phase) along with continued assessments (of metabolic parameters). The hunger score was evaluated using a Likert hunger scale from 0 to 10 points (0=no hunger; 10=severe hunger). See, e.g., Sibilia. Psychologicol Topics 19 (2010), 2, 341-354.
Bioelectric Impedance Analysis (BIA) and indirect calorimetric analysis was performed according standard protocols, e.g., as described in Barak et al. JPEN J. Parenter. Enteral Nutr. 27.1(2003):43-6; and Compher et al. J. Am. Diet Assoc.
Statistical analysis: The values of systolic and diastolic blood pressure and heart rate were analyzed with a […].

[3] = higher doses (0.137 mpk, 0.344 mpk, and 1.37 mpk), vs vehicle-treated mice
[4] = after 26 weeks of treatment, listed as MC4R agonist
[5] = after a 13-week treatment vs baseline
[6] = bioelectrical impedance analysis
[7] = off drug after 13 weeks of treatment (three weeks off drug)

For CC(=O)N[C@@H](CCCNC(=N)N)C(=O)N[C@H]1CSSC[C@@H](C(N)=O)NC(=O)[C@H](Cc2c[nH]c3ccccc23)NC(=O)[C@H](CCCNC(=N)N)NC(=O)[C@@H](Cc2ccccc2)NC(=O)[C@H](Cc2cnc[nH]2)NC(=O)[C@@H](C)NC1=O [setmelanotide, Ac-Arg-c(Cys-D-Ala-His-D-Phe-Arg-Trp-Cys)-NH2], the food intake (wildtype mice) was “retained normal levels of food intake”, the “suppression of food intake” value (db/db mice; 0.0544 mpk dose, end of the 4 hour time period) was “about 80%” and the “suppression of food intake compared with wildtype mice” value (db/db mice; all concentrations) was “more profound suppression of foodintake than wildtype mice”. For the same compound, the food intake (db/db mice; [3]) was “significantly decreased food intake”, the “food intake vs vehicle treated mice” value (wild-type mice; 0.0544 mpk dose, 4 hour timepoint) was “identical food intake” and the food intake (wild-type mice; 0.0544 mpk dose, at 1 and 2 hours) was “Decreased food intake”. The food intake (wild-type mice; [3]) was “significantly decreased food intake”, the “effect on blood pressure” value ([1]; clinical trials (Chen et al. 2015)) was “not been shown to adversely affect blood pressure” and the “effects on sexual activity” value ([1]; in vivo) was “only infrequent”. The “signs of increased blood pressure” value ([1]; in vivo) was “little, if any”, the tolerability ([1]; in vivo) was “generally well-tolerated” and the “increase of energy expenditure” value (Magel2-null mice; 0.1 mg/kg i.p., 3 hours post-dosing, vs vehicle-dosed Magel2-null mice) was 11%. The “decrease of spontaneous food intake” value (Magel2-null mice; 0.1 mg/kg i.p., over the first 3 hours, P<0.05) was about 75%, the “food intake suppression, duration” value (Magel2-null mice; 0.1 mg/kg i.p., overnight) was “persisted throughout the dark cycle” and the cumulative food intake (Magel2-null mice; 0.1 mg/kg, P<0.05) was “statistically significant decrease”. For the same compound, the “sensitivity compared with wildtype mice” value (Magel2-null mice; 0.1 mg/kg, food intake) was “much more sensitive than wildtype mice”, the weight loss [2] was 0.6-0.9 kg per week and the “Likert hunger scale score” value (POMC deficient patient; 1 mg s.c. once daily, scale 0 to 10 (0=no hunger), baseline 9) was 5 points. For the same compound, the “rate of weight loss” value (POMC deficient patient; 1.5 mg dose, first treatment phase) was 2-3 kg per week, the LDL (POMC deficient patient; after 26 weeks of treatment) was “further reduced” and the total cholesterol (POMC deficient patient; after 26 weeks of treatment) was “further reduced”. The “total loss of body weight” value (POMC deficient patient; after 26 weeks of treatment) was 35.9 kg, the “total loss of body weight, % of initial body weight” value (POMC deficient patient; after 26 weeks of treatment) was 23.2% and the triglycerides (POMC deficient patient; after 26 weeks of treatment) was “further reduced”. For the same compound, the “total loss of body weight” value (POMC deficient patient; [4]) was “about 36 kg”, the “total loss of body weight, % of initial body weight” value (POMC deficient patient; [4]) was “about 23%” and the HDL cholesterol (POMC deficient patient; [5]) was “did not change”. For the same compound, the LDL cholesterol (POMC deficient patient; [5]) was “reduced”, the total cholesterol (POMC deficient patient; [5]) was “reduced” and the triglycerides (POMC deficient patient; [5]) was “did not change”. For the same compound, the “total weight loss, % of initial body weight” value (POMC deficient patient; after the first 13 weeks of treatment) was 16.7%, the total weight loss (POMC deficient patient; after the first 13 weeks of treatment, baseline 155 kg) was 25.8 kg and the BMI (POMC deficient patient; after the first 13 weeks, baseline 49.8) was 41.5 kg/m2. The end body weight (POMC deficient patient; after the first 13 weeks, baseline 155 kg) was 129.2 kg, the “BMI SDS” value (POMC deficient patient; after the first 13 weeks, baseline +4.52) was “+3.86” and the quality of life (POMC deficient patient; after the initiation of treatment) was “improved dramatically”. The “loss of body weight” value (POMC deficient patient; at 86 weeks of treatment) was 60.5 kg, the “composition of the reduction of body weight” value (POMC deficient patient; [6]) was “mainly due to a loss of body-fat mass” and the lean body mass (POMC deficient patient; [6]) was “not greatly altered”. For the same compound, the “resting energy expenditure (REE)/kg lean body mass” value (POMC deficient patient; despite severe weight loss) was “stayed relatively stable”, the blood pressure (POMC deficient patient; during all steps of dose escalation) was “no increase” and the “diastolic BP” value (POMC deficient patient; during the study) was “significant decreases”. For the same compound, the “heart rate (HR)” value (POMC deficient patient; during the study) was “significant decreases”, the “systolic BP” value (POMC deficient patient; during the study) was “significant decreases” and the “adverse event reported by the patient” value (POMC deficient patient; human, in vivo) was “infrequent dry mouth”. The safety laboratories (POMC deficient patient; human, in vivo) was “no changes in safety laboratories of clinical concern”, the tolerability of treatment (POMC deficient patient; human, in vivo) was “well tolerated” and the changes in hunger (POMC deficient patient; initially, with low dosage) was “only little changes”. The weight loss (POMC deficient patient; initially, with low dosage) was “moderate”, the “Likert hunger score after treatment was stopped” value (POMC deficient patient; [7]) was 7 points and the “weight regained after treatment was stopped” value (POMC deficient patient; [7]) was 4.8 kg. For the same compound, the “blood glucose values (fasting and after glucose challenge)” value (POMC deficient patient; oral glucose tolerance test, during the study) was “remained always in the normal range; also recorded: relatively stable”, the “weight loss per week” value (POMC deficient patient; overall, over the course of 26 weeks of treatment) was 2-2.5 kg per week and the “rate of weight loss” value (POMC deficient patient; second treatment phase (1 mg for 4 weeks and 1.5 mg thereafter)) was 1-2 kg per week. The “elevated insulin levels / insulin resistance (insulin sensitivity)” value (POMC deficient patient; under setmelanotide treatment) was “improved significantly” and the serum leptin concentrations (POMC deficient patient; with loss of body-fat mass) was “significant decrease”.

Source: patent US12263202B2, “Method of treating melanocortin-4 receptor pathway-associated disorders” (CHARITÉ—UNIVERSITÄTSMEDIZIN BERLIN, priority 2015, dated 2025)
